Source: PubChem BioAssay AID2060897 (Molecular Pharmacology Branch, DTP, NCI, 2025)

Tested on: 966289-007-R4-J1-PDC complex spheroid viability
Experiment: Anticancer human tumor 966289-007-R4-J1-PDC patient-derived pancreatic adenocarcinoma cell line growth inhibition [RAS]
Details: for IC50: curve of first compound; for viability, T/C: stronger effect = lower value
Method in brief: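 Tumour cells grown as complex spheroids with HUVEC endothelial cells and mesenchymal stem cells, treated with RAS pathway inhibitor combinations. Each agent spans half-log steps from near clinical Cmax, or 10 microM where Cmax is unknown.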

[1] = second compound 0.000949 µM, first compound 0.00316 µM
[2] = second compound 0.000949 µM, first compound 0.01 µM
[3] = second compound 0.000949 µM, first compound 0.0316 µM
[4] = second compound 0.000949 µM, first compound 0.1 µM
[5] = second compound 0.000949 µM, first compound 0.316 µM
[6] = second compound 0.000949 µM, first compound 1 µM
[7] = second compound 0.003 µM, first compound 0.00316 µM
[8] = second compound 0.003 µM, first compound 0.01 µM
[9] = second compound 0.003 µM, first compound 0.0316 µM
[10] = second compound 0.003 µM, first compound 0.1 µM
[11] = second compound 0.003 µM, first compound 0.316 µM
[12] = second compound 0.003 µM, first compound 1 µM
[13] = second compound 0.00949 µM, first compound 0.00316 µM
[14] = second compound 0.00949 µM, first compound 0.01 µM
[15] = second compound 0.00949 µM, first compound 0.0316 µM
[16] = second compound 0.00949 µM, first compound 0.1 µM
[17] = second compound 0.00949 µM, first compound 0.316 µM
[18] = second compound 0.00949 µM, first compound 1 µM
[19] = second compound 0.03 µM, first compound 0.00316 µM
[20] = second compound 0.03 µM, first compound 0.01 µM
[21] = second compound 0.03 µM, first compound 0.0316 µM
[22] = second compound 0.03 µM, first compound 0.1 µM
[23] = second compound 0.03 µM, first compound 0.316 µM
[24] = second compound 0.03 µM, first compound 1 µM
[25] = second compound 0.0949 µM, first compound 0.00316 µM
[26] = second compound 0.0949 µM, first compound 0.01 µM
[27] = second compound 0.0949 µM, first compound 0.0316 µM
[28] = second compound 0.0949 µM, first compound 0.1 µM
[29] = second compound 0.0949 µM, first compound 0.316 µM
[30] = second compound 0.0949 µM, first compound 1 µM
[31] = second compound 0.3 µM, first compound 0.00316 µM
[32] = second compound 0.3 µM, first compound 0.01 µM
[33] = second compound 0.3 µM, first compound 0.0316 µM
[34] = second compound 0.3 µM, first compound 0.1 µM
[35] = second compound 0.3 µM, first compound 0.316 µM
[36] = second compound 0.3 µM, first compound 1 µM
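Further: spheroids exposed to agents for one week before readout.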
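Wherever viability, T/C is given: percent viability relative to DMSO vehicle control wells as 100%.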

C=CC(=O)Nc1cc(Nc2nccc(-c3cn(C)c4ccccc34)n2)c(OC)cc1N(C)CCN(C)C + CCn1c(-c2cc(N3CCN(C)CC3)cnc2C(C)OC)c2c3cc(ccc31)-c1csc(n1)CC(NC(=O)C1CC1C)C(=O)N1CCCC(N1)C(=O)OCC(C)(C)C2
IC50 (second compound 0.000949 µM): > 1000 nM | IC50 (second compound 0.003 µM): > 1000 nM | IC50 (second compound 0.00949 µM): > 1000 nM | IC50 (second compound 0.03 µM): > 1000 nM | IC50 (second compound 0.0949 µM): > 1000 nM | IC50 (second compound 0.3 µM): > 1000 nM | viability, T/C [1]: 88% | viability, T/C [2]: 88.8% | viability, T/C [3]: 116% | viability, T/C [4]: 69.1% | viability, T/C [5]: 83.5% | viability, T/C [6]: 75.5% | viability, T/C [7]: 90.7% | viability, T/C [8]: 92.2% | viability, T/C [9]: 80.2% | viability, T/C [10]: 82.7% | viability, T/C [11]: 110% | viability, T/C [12]: 79.3% | viability, T/C [13]: 111% | viability, T/C [14]: 87.6% | viability, T/C [15]: 98.8% | viability, T/C [16]: 78.7% | viability, T/C [17]: 92.9% | viability, T/C [18]: 94.7% | viability, T/C [19]: 74.4% | viability, T/C [20]: 71.4% | viability, T/C [21]: 100% | viability, T/C [22]: 88.4% | viability, T/C [23]: 120% | viability, T/C [24]: 96.8% | viability, T/C [25]: 86% | viability, T/C [26]: 111% | viability, T/C [27]: 98.1% | viability, T/C [28]: 114% | viability, T/C [29]: 88.2% | viability, T/C [30]: 101% | viability, T/C [31]: 102% | viability, T/C [32]: 89.6% | viability, T/C [33]: 103% | viability, T/C [34]: 143% | viability, T/C [35]: 123% | viability, T/C [36]: 103%

CC(Nc1ccc2c(c1)OCCn1cc(N3C(=O)OCC3C(F)F)nc1-2)C(N)=O (stereo unspecified) + CCn1c(-c2cc(N3CCN(C)CC3)cnc2C(C)OC)c2c3cc(ccc31)-c1csc(n1)CC(NC(=O)C1CC1C)C(=O)N1CCCC(N1)C(=O)OCC(C)(C)C2
IC50 (second compound 0.000949 µM): > 10000 nM | IC50 (second compound 0.003 µM): > 10000 nM | IC50 (second compound 0.00949 µM): > 10000 nM | IC50 (second compound 0.03 µM): > 10000 nM | IC50 (second compound 0.0949 µM): > 10000 nM | IC50 (second compound 0.3 µM): > 10000 nM | viability, T/C [3]: 126% | viability, T/C [4]: 124% | viability, T/C [5]: 105% | viability, T/C [6]: 92.2% | viability, T/C (second compound 0.000949 µM, first compound 3.16 µM): 110% | viability, T/C (second compound 0.000949 µM, first compound 10 µM): 103% | viability, T/C [9]: 115% | viability, T/C [10]: 104% | viability, T/C [11]: 108% | viability, T/C [12]: 83.7% | viability, T/C (second compound 0.003 µM, first compound 3.16 µM): 96.8% | viability, T/C (second compound 0.003 µM, first compound 10 µM): 99.3% | viability, T/C [15]: 123% | viability, T/C [16]: 113% | viability, T/C [17]: 104% | viability, T/C [18]: 96% | viability, T/C (second compound 0.00949 µM, first compound 3.16 µM): 111% | viability, T/C (second compound 0.00949 µM, first compound 10 µM): 95.2% | viability, T/C [21]: 84.6% | viability, T/C [22]: 97% | viability, T/C [23]: 133% | viability, T/C [24]: 92.2% | viability, T/C (second compound 0.03 µM, first compound 3.16 µM): 122% | viability, T/C (second compound 0.03 µM, first compound 10 µM): 95% | viability, T/C [27]: 91.6% | viability, T/C [28]: 119% | viability, T/C [29]: 104% | viability, T/C [30]: 101% | viability, T/C (second compound 0.0949 µM, first compound 3.16 µM): 114% | viability, T/C (second compound 0.0949 µM, first compound 10 µM): 88.4% | viability, T/C [33]: 121% | viability, T/C [34]: 108% | viability, T/C [35]: 90.3% | viability, T/C [36]: 94.5% | viability, T/C (second compound 0.3 µM, first compound 3.16 µM): 123% | viability, T/C (second compound 0.3 µM, first compound 10 µM): 92%

O=C(c1ccc(F)c(F)c1Nc1ccc(I)cc1F)N1CC(O)([C@@H]2CCCCN2)C1 + CCn1c(-c2cc(N3CCN(C)CC3)cnc2C(C)OC)c2c3cc(ccc31)-c1csc(n1)CC(NC(=O)C1CC1C)C(=O)N1CCCC(N1)C(=O)OCC(C)(C)C2
IC50 (second compound 0.000949 µM): 641 nM | IC50 (second compound 0.003 µM): 596 nM | IC50 (second compound 0.00949 µM): 228 nM | IC50 (second compound 0.03 µM): 124 nM | IC50 (second compound 0.0949 µM): 45.2 nM | IC50 (second compound 0.3 µM): 32.1 nM | viability, T/C [1]: 101% | viability, T/C [2]: 89.9% | viability, T/C [3]: 106% | viability, T/C [4]: 77.7% | viability, T/C [5]: 74.2% | viability, T/C [6]: 36.2% | viability, T/C [7]: 92% | viability, T/C [8]: 90.8% | viability, T/C [9]: 94.7% | viability, T/C [10]: 74.5% | viability, T/C [11]: 75.5% | viability, T/C [12]: 32.2% | viability, T/C [13]: 83.8% | viability, T/C [14]: 96.2% | viability, T/C [15]: 87.8% | viability, T/C [16]: 82.5% | viability, T/C [17]: 37% | viability, T/C [18]: 22.6% | viability, T/C [19]: 87.3% | viability, T/C [20]: 79.3% | viability, T/C [21]: 76.2% | viability, T/C [22]: 54.2% | viability, T/C [23]: 29.9% | viability, T/C [24]: 15.5% | viability, T/C [25]: 97.5% | viability, T/C [26]: 93% | viability, T/C [27]: 52.5% | viability, T/C [28]: 34.6% | viability, T/C [29]: 21.1% | viability, T/C [30]: 11% | viability, T/C [31]: 93.1% | viability, T/C [32]: 76.5% | viability, T/C [33]: 52% | viability, T/C [34]: 23.7% | viability, T/C [35]: 19.7% | viability, T/C [36]: 10.4%
